Experiment [1] relates to HBsAg in HBV-infected PHH. Put plainly: Cryopreserved primary human hepatocytes (PHH) HBV infection assay, extracellular HBsAg (CLIA). In kind it is cell-based. The settings on record: Hepatitis B virus, Hepatocyte, 216 h, read-out: HBsAg IC50, Cryopreserved PHH infected with HBV, 9 days post-compound treatment, extracellular HBsAg. As to the method:
This assay is used to confirm the anti-HBV effect of the compounds in HBV PHH infection assay. Cryopreserved PHH (BioreclamationIVT, Lot YJM) was thawed at 37° C. and gently transferred into pre-warmed InVitroGRO HT medium (BioreclamationIVT, Cat. S03317). The mixture was centrifuged at 70 relative centrifugal force (RCF) for 3 minutes at RT, and the supernatant was discarded. Pre-warmed InVitroGRO CP medium (BioreclamationIVT, Cat #S03316) was added to the cell pellet to gently re-suspend cells. The cells were seeded at the density of 5.8×10^4 cells per well to collagen I coated 96-well plate (Gibco, Cat. A1142803) with the InVitroGRO CP medium. All plates were incubated at 37° C. with 5% CO2 and 85% humidity.
At 20 hours after plating, the medium was changed to PHH culture medium (Dulbecco's Modified Eagle Medium (DMEM)/F12 (1:1) (Gibco, Cat. 11320-033), 10% fetal bovine semm (Gibco Cat. 10099141), 100 U/mL penicillin, 100 μg/mL streptomycin (Gibco, Cat. 151401-122), […] (Invitrogen Cat. PHG0311L), 20 ng/mL dexamethasone (Sigma, Cat. D4902) and 250 ng/mL human recombinant insulin (Gibco, Cat. 12585-014)). And the cells were incubated at 37° C. with 5% CO2 and 85% humidity for 4 hours. The medium was then changed to pre-warmed PHH culture medium containing 4% polyethylene glycol (PEG) MW8000 (Sigma, Cat. P1458-50 ML) and 1% DMSO (Sigma, Cat. D2650). 5.8×10^6 genomic equivalents of HBV were added into the medium.
At 24 hours post-infection, the cells were gently washed with PBS and refreshed with PHH culture medium supplemented with 1% DMSO, and 0.25 mg/mL Matrix gel (Corning, Cat. 356237) at 200 μL per well. All plates were immediately placed in at 37° C. CO2 incubator.
24 hours later, serial dilutions of compounds made with DMSO were further diluted with the same culture medium (PHH culture medium supplemented with 1% DMSO and 0.25 mg/mL Matrix gel as described above) before they were added to the cells to reach desired final compound concentrations and 1% DMSO concentration. The medium containing the compounds were refreshed every three days.
At 9 days post-compound treatment, extracellular HBsAg level were measured with Chemiluminescence Immuno Assay (CLIA) kit (Autobio, HBsAg Quantitative CLIA). Extracellular HBV DNA was extracted by MagNA Pure 96 system (Roche) and then determined by quantitative PCR with the following primers and probe: […]
HBsAg IC50 and HBV DNA IC50 values were derived from the dose-response curve using 4 parameter logistic curve fit method. The compounds of formula (I) have HBsAg IC50<20 μM, particularly <1 μM; and HBV DNA IC50<50 μM.

Experiment [2] relates to HBeAg (surrogate marker for cccDNA) in HepDES19 cells. Kind of experiment: Engineered HepDES19 primary screen assay (HBeAg ELISA). In kind it is cell-based, HBV. Summed up: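 IC50 values come from 4-parameter logistic fits of HBeAg ELISA signal, the cccDNA surrogate, with CCK-8 run in parallel for viability. Compounds at half-log dilutions with 1% DMSO were applied for 5 days at 37 °C to HepDES19 cells previously cultured 8 days without Tet.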
On the technique in general: An ELISA detects its analyte on a solid surface through an enzyme-linked reagent.

Setting [3] is: Hepatitis B virus, HepDES19, 120 h, read-out: IC50 (HBeAg level, HepDES19 primary screen assay), HepDES19 cells, 5 days compound incubation, HBeAg ELISA.

The source of these data is US11708344B2, “Flavone derivatives for the treatment and prophylaxis of hepatitis B virus disease” (Hoffmann-La Roche Inc., priority 2018, dated 2023).

Molecules are shown by their SMILES. Like-named read-outs stand apart in the source and are kept apart here.

For `O=C(O)CCOc1cc(OC(F)(F)F)c(Br)cc1-c1cc(=O)c2cccc(Cl)c2o1` [Example A016, 3-[4-bromo-2-(8-chloro-4-oxo-chromen-2-yl)-5-(trifluoromethoxy)phenoxy]propanoic acid], the IC50 (usually the concentration needed to halve the response being measured) in experiment [1] was 0.828 µM; in experiment [2] (setting [3]) it was 1030 nM.

Regarding `O=C(O)CCOc1cc(Br)cc(F)c1-c1cc(=O)c2cccc(Cl)c2o1` [Example A020, 3-[5-bromo-2-(8-chloro-4-oxo-chromen-2-yl)-3-fluoro-phenoxy]propanoic acid], the values for the IC50 in experiment [1] and in experiment [2] (setting [3]) were 7.5 µM and 780 nM, respectively.

On to `O=C(O)CCCOc1cc(Br)ccc1-c1cc(=O)c2cccc(Cl)c2o1` [Example A055, 4-[5-bromo-2-(8-chloro-4-oxo-chromen-2-yl)phenoxy]butanoic acid], for which the figures for the IC50 in experiment [1] and in experiment [2] (setting [3]) were 2.38 µM and 95.5 nM, respectively.

`Cc1cc(-c2cc(=O)c3cccc(Cl)c3o2)c(OCC(=O)N2C[C@@H](O)[C@@H](O)C2)cc1Br` [Example A090, 2-[4-bromo-5-methyl-2-[2-oxo-2-[rac-(3S,4R)-3,4-dihydroxypyrrolidin-1-yl]ethoxy]phenyl]-8-chloro-chromen-4-one]: the IC50 in experiment [1] is 9.35 µM; in experiment [2] (setting [3]), 4790 nM.

Turning to `O=C(COc1cc(C(F)(F)F)ccc1-c1cc(=O)c2cccc(Cl)c2o1)N1CCOCC1` [Example A092, 8-chloro-2-[2-(2-morpholino-2-oxo-ethoxy)-4-(trifluoromethyl)phenyl]chromen-4-one], the IC50 in experiment [1] stood at 2.8 µM; in experiment [2] (setting [3]), 1130 nM.

`O=C(O)C1CC(Oc2cc(Br)ccc2-c2cc(=O)c3cccc(Cl)c3o2)C1` (stereo not shown) [Example B001, 3-[5-bromo-2-(8-chloro-4-oxo-chromen-2-yl)phenoxy]cyclobutanecarboxylic acid]: the IC50 amounted to 1.03 µM in experiment [1] and 213 nM in experiment [2] (setting [3]).

As to `Cc1cc(-c2cc(=O)c3cccc(Cl)c3o2)c(O[C@H]2C[C@@H](C(=O)O)C2)cc1Br` [Example B013-A, Cis-3-[5-bromo-2-(8-chloro-4-oxo-chromen-2-yl)-4-methyl-phenoxy]cyclobutanecarboxylic acid], the IC50 in experiment [1] is 7.3 µM; in experiment [2] (setting [3]), 919 nM.

`Cc1cc(-c2cc(=O)c3cccc(Cl)c3o2)c(O[C@H]2C[C@H](C(=O)O)C2)cc1Br` [Example B013-B, Trans-3-[5-bromo-2-(8-chloro-4-oxo-chromen-2-yl)-4-methyl-phenoxy]cyclobutanecarboxylic acid]: the IC50 in experiment [1] amounted to 1.02 µM; in experiment [2] (setting [3]), 2450 nM.

As to `COc1cc(O[C@H]2C[C@H](C(=O)O)C2)c(-c2cc(=O)c3cccc(Cl)c3o2)cc1C` [Example B017, 3-[2-(8-chloro-4-oxo-chromen-2-yl)-5-methoxy-4-methyl-phenoxy]cyclobutanecarboxylic acid], the IC50 turned out to be 4.87 µM in experiment [1] and 4850 nM in experiment [2] (setting [3]).

In the case of `Cc1ccc(-c2cc(=O)c3cccc(Cl)c3o2)c(O[C@H]2C[C@H](C(=O)O)C2)c1` [Example B018-B, Trans-3-[2-(8-chloro-4-oxo-chromen-2-yl)-5-methyl-phenoxy]cyclobutanecarboxylic acid], the results for the IC50 in experiment [1] and in experiment [2] (setting [3]) were 4.7 µM and 548 nM, respectively.

For the molecule `CCc1ccc(-c2cc(=O)c3cccc(Cl)c3o2)c(O[C@H]2C[C@@H](C(=O)O)C2)c1` [Example B019-A, Cis-3-[2-(8-chloro-4-oxo-chromen-2-yl)-5-ethyl-phenoxy]cyclobutanecarboxylic acid], the results for the IC50 in experiment [1] and in experiment [2] (setting [3]) were 3.96 µM and 1030 nM, respectively.

Turning to `O=c1cc(-c2ccc(Br)cc2OC[C@H]2C[C@H](C(=O)O)C2)oc2c(Cl)cccc12` [Example B025-B, Trans-3-[[5-bromo-2-(8-chloro-4-oxo-chromen-2-yl)phenoxy]methyl]cyclobutanecarboxylic acid], the IC50 in experiment [1] is 3.06 µM; in experiment [2] (read-out: IC50 (HBeAg level, HepDES19 primary screen assay), HepDES19 cells, 5 days compound incubation, HBeAg ELISA), 2270 nM.

As to `COc1cc(O[C@H]2C[C@H](C(=O)NS(C)(=O)=O)C2)c(-c2cc(=O)c3cccc(Cl)c3o2)cc1Br` [Example B055-B, Trans-3-[4-bromo-2-(8-chloro-4-oxo-chromen-2-yl)-5-methoxy-phenoxy]-N-methylsulfonyl-cyclobutanecarboxamide], the IC50 in experiment [1] stood at 4 µM; in experiment [2] (setting [3]), 3880 nM.

On to `N#CC1CC(Oc2cc(C(F)(F)F)ccc2-c2cc(=O)c3cccc(Cl)c3o2)C1` (stereo not shown) [Example B070, 3-[2-(8-chloro-4-oxo-chromen-2-yl)-5-(trifluoromethyl)phenoxy]cyclobutanecarbonitrile], for which the results for the IC50 in experiment [1] and in experiment [2] (setting [3]) were 0.788 µM and 435 nM, respectively.

Consider `CN(C)S(=O)(=O)CCCOc1cc(Br)ccc1-c1cc(=O)c2cccc(Cl)c2o1` [Example B071, 3-[5-bromo-2-(8-chloro-4-oxo-chromen-2-yl)phenoxy]-N,N-dimethyl-propane-1-sulfonamide], for which the IC50 came out at 4.95 µM in experiment [1] and 988 nM in experiment [2] (setting [3]).

For the molecule `O=C(O)COCCCOc1cc(Br)ccc1-c1cc(=O)c2cccc(Cl)c2o1` [Example C010, 2-[3-[5-bromo-2-(8-chloro-4-oxo-chromen-2-yl)phenoxy]propoxy]acetic acid], the IC50 in experiment [1] stood at 9.38 µM; in experiment [2] (setting [3]), 696 nM.

As to `Cc1cc(-c2cc(=O)c3cccc(Cl)c3o2)c(OCCO[C@H]2C[C@@H](C(=O)O)C2)cc1Br` [Example C031-A, Cis-3-[2-[5-bromo-2-(8-chloro-4-oxo-chromen-2-yl)-4-methyl-phenoxy]ethoxy]cyclobutanecarboxylic acid], the IC50 in experiment [1] was 1.16 µM; in experiment [2] (setting [3]), 6190 nM.

In the case of `COc1cc(OCCO[C@H]2C[C@@H](C(=O)O)C2)c(-c2cc(=O)c3cccc(Cl)c3o2)cc1C` [Example C041-A, Cis-3-[2-[2-(8-chloro-4-oxo-chromen-2-yl)-5-methoxy-4-methyl-phenoxy]ethoxy]cyclobutanecarboxylic acid], the IC50 is 5.93 µM in experiment [1] and 7840 nM in experiment [2] (setting [3]).

On to `O=c1cc(-c2ccc(Br)cc2OCCO[C@H]2C[C@@H](C(=O)O)C2)oc2c(Cl)ccc(C(F)(F)F)c12` [Example C049-A, Cis-3-[2-[5-bromo-2-[8-chloro-4-oxo-5-(trifluoromethyl)chromen-2-yl]phenoxy]ethoxy]cyclobutanecarboxylic acid], for which the IC50 in experiment [1] is 7.31 µM; in experiment [2] (setting [3]), 77.5 nM.

`Cc1cc(-c2cc(=O)c3cccc(Cl)c3o2)c(OCCO[C@H]2C[C@@H](C(=O)O)C2)cc1Cl` [Example C055-A, Cis-3-[2-[5-chloro-2-(8-chloro-4-oxo-chromen-2-yl)-4-methyl-phenoxy]ethoxy]cyclobutanecarboxylic acid]: the IC50 in experiment [1] was 9.27 µM; in experiment [2] (setting [3]), 4030 nM.

Take `O=C(O)C1CC(OCCOc2cc(N3CCOC3=O)ccc2-c2cc(=O)c3cccc(Cl)c3o2)C1` (stereo not shown) [Example C062, 3-[2-[2-(8-chloro-4-oxo-chromen-2-yl)-5-(2-oxooxazolidin-3-yl)phenoxy]ethoxy]cyclobutanecarboxylic acid]: the results for the IC50 in experiment [1] and in experiment [2] (setting [3]) were 6.79 µM and 1510 nM, respectively.

For the molecule `O=c1cc(-c2ccc(N3CCOCC3)cc2OCCO[C@H]2C[C@H](C(=O)O)C2)oc2c(Cl)cccc12` [Example C067-B, trans-3-[2-[2-(8-chloro-4-oxo-chromen-2-yl)-5-morpholino-phenoxy]ethoxy]cyclobutanecarboxylic acid], the IC50 in experiment [1] was 4.74 µM; in experiment [2] (setting [3]), 8360 nM.

With `NC(=O)COCC(O)COc1cc(Br)ccc1-c1cc(=O)c2cccc(Cl)c2o1` (stereo not shown) [Example C114, 2-[3-[5-bromo-2-(8-chloro-4-oxo-chromen-2-yl)phenoxy]-2-hydroxy-propoxy]acetamide], the IC50 was found to be 9.19 µM in experiment [1] and 1240 nM in experiment [2] (setting [3]).
